Our source for the ED50 and IC50 values is ChEMBL document CHEMBL1135114, “Syntheses and bioactivities of novel carbamates combining platelet activating factor (PAF) receptor antagonist with thromboxane synthase inhibitor (TxSI)” (Bioorg Med Chem Lett, 2002).

What is called ED50 is the dose that gives a 50% effect, or the effect in half of the subjects. As a reminder, the IC50 is the concentration needed to halve the response being measured.

For experiment [1], the system named is Mus musculus. Briefly: Ability to protect mice from the lethal effect of Platelet activating factor on po administration of compound. The class given is functional.
Another experiment is filed under the species Oryctolagus cuniculus. Briefly: The compound was tested for inhibition of Platelet activating factor (PAF) induced platelet aggregation in rabbit platelet rich plasma. The class given is functional.
For experiment [2], the system named is Rattus norvegicus. Briefly: Inhibition of serum TXB2 production in the rats after intravenous administration. The class given is functional.
The test system of experiment [3] is Rattus norvegicus. Briefly: Inhibition of serum TXB2 production in the rats after peroral administration. The conditions noted are these: po. The class given is functional.
A further experiment concerns the target T1, Thromboxane-A synthase (Homo sapiens, UniProt P24557).
T1 sequence (P24557 whole entry): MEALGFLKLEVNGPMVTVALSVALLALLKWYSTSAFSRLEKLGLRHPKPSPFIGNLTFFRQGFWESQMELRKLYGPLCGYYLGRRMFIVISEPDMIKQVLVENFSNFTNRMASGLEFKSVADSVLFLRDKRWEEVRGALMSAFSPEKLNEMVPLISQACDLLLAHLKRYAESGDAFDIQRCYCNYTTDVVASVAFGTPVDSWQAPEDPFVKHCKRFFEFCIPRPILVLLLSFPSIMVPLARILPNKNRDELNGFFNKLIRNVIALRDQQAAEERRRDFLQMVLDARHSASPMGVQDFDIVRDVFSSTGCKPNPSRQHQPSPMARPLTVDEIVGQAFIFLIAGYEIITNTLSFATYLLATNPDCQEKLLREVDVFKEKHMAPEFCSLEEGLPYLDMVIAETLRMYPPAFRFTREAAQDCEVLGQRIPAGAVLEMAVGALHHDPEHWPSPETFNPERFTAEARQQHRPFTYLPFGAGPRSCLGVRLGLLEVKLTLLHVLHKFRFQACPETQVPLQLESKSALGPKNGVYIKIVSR
Briefly: Thromboxane A2 synthase inhibitory activity was measured from inhibition of thromboxane B2 production in human platelet microsomes. Also noted: species or system Microsome.

For experiment [4], the system named is Mus musculus. As to the kind of experiment: Ability to protect mice from the lethal effect of Platelet activating factor on iv administration of compound. It counts as functional.

Molecules are shown by their SMILES. Bounds are passed on as bounds.

With `CCOC(=O)CCCC/[N+]([O-])=C(/c1cccnc1)c1cccc(CN2CCc3c(sc4c3C(c3ccccc3Cl)=NCc3nnc(C)n3-4)C2)c1`, the ED50 with Mus musculus [1] was greater than 10 mg/kg; with Rattus norvegicus [2], 0.1 mg/kg; in the experiment with Rattus norvegicus [3], greater than 10 mg/kg; in the experiment on Mus musculus [4], 0.8 mg/kg. Moreover, the values for the IC50 in the experiment listed under Oryctolagus cuniculus and against Thromboxane-A synthase were 190 nM and 67 nM, respectively.

Regarding `CCOC(=O)CCCC/[N+]([O-])=C(/c1cccnc1)c1cccc(COC(=O)N2CCc3c(sc4c3C(c3ccccc3Cl)=NC(C)c3nnc(C)n3-4)C2)c1` (stereo not drawn), the ED50 in the experiment on Mus musculus [1] is greater than 10 mg/kg; in the experiment on Rattus norvegicus [2], 0.1 mg/kg; in the experiment with Rattus norvegicus [3] it was greater than 10 mg/kg; in the experiment on Mus musculus [4] it was 0.2 mg/kg. Also, the values for the IC50 in the experiment filed under Oryctolagus cuniculus and against Thromboxane-A synthase were 41 nM and 69 nM, respectively.

In the case of `CCOC(=O)CCCC/[N+]([O-])=C(/c1cccnc1)c1cccc(COC(=O)N2CCc3c(sc4c3C(c3ccccc3Cl)=NCc3nnc(C)n3-4)C2)c1`, the ED50 in the experiment on Mus musculus [1] is greater than 10 mg/kg; in the experiment on Rattus norvegicus [2], 0.1 mg/kg; in the experiment with Rattus norvegicus [3] it was greater than 10 mg/kg; in the experiment with Mus musculus [4], 0.7 mg/kg. In addition, the IC50 in the experiment filed under Oryctolagus cuniculus turned out to be 139 nM; at Thromboxane-A synthase, 62 nM.

As to `CCOC(=O)CCCC/[N+]([O-])=C(/c1cccnc1)c1cccc(CN2CCc3c(sc4c3C(c3ccccc3Cl)=NC(C)c3nnc(C)n3-4)C2)c1` (stereo not drawn), the 50% effective dose (ED50) with Mus musculus [1] was greater than 10 mg/kg; in the experiment on Rattus norvegicus [2] it was 0.1 mg/kg; with Rattus norvegicus [3] it was greater than 10 mg/kg; in the experiment on Mus musculus [4], 0.2 mg/kg. In addition, the IC50 in the experiment listed under Oryctolagus cuniculus was determined as 47 nM; against Thromboxane-A synthase, 60 nM.

`O=C(O)CCCC/C=C(/c1ccccc1)c1cccnc1` [ISBOGREL]: the values for the ED50 with Rattus norvegicus [2] and in the experiment with Rattus norvegicus [3] were 0.01 mg/kg and 0.05 mg/kg, respectively.

Regarding `O=C(O)/C=C/c1ccc(Cn2ccnc2)cc1` [OZAGREL], the ED50 in the experiment on Rattus norvegicus [2] was determined as 0.02 mg/kg; in the experiment with Rattus norvegicus [3], 0.1 mg/kg.
